The target in this test is PDE3 enzyme (Homo sapiens (Human), UniProt Q14432). As to the kind of experiment: PDE3 inhibition assay (BIOMOL GREEN Quantizyme Assay System). Format: biochemical. The settings on record: PDE3 from platelets isolated from human blood; cAMP substrate; 1 hour at 37° C.; read at 620 nm. As for the experimental part:
PDE3 inhibition assay was performed a BIOMOL GREEN™ Quantizyme Assay System (catalogue No. BML-AK800-0001). The Platelets isolated from human blood were used as a source of PDE3 enzyme. 10 mL blood collected in a vacutainer tube (containing K3 EDTA) and centrifuged at 190×g for 15 min at room temperature. Top layer (platelet rich plasma) collected, centrifuged at 2500 g for 5 min at 22° C. (Room temp.) The pellet was washed with 2 ml of 50 mM tris buffer (pH-7.4) containing 1 mM MgCl2 and centrifuged at 2500 g for 5 min. Then 200 μl of assay buffer (from PDE kit, Enzo Life Sciences) was added to the pellet and sonicated at 30 s per ml. Pellet was freeze thawed for three times (−80° C.) in order to rupture the platelet membrane and release the PDE enzyme. Then the cell homogenate was centrifuged at 2500 rpm for 5 min. Supernatant was collected and used as source for PDE3 enzyme. In 96 well plate (Prod. No. BML-KI101), we added supernatant having PDE3 enzyme, PDE3 assay buffer, cAMP substrate, 5′ nucleotidase and test or standard compound and incubated for 1 hour at 37° C. The reaction was arrested by the addition 100 μl BIOMOL GREEN reagent incubated in room temp for 20 min. The green color developed was measured at 620 nm.
The in vitro Phosphodiestarase (PDE3) inhibitory activity of compounds 1a-q, were measured using a BIOMOL GREEN™ Quantizyme Assay System (catalogue No. BML-AK800-0001). The basic principle for this assay is the cleavage of c-AMP or c-GMP into their respective nucleotide by a cyclic nucleotide phosphodiesterase. The nucleotide (AMP or GMP) released is further cleaved into the nucleoside and phosphate by the enzyme 5′-nucleotidase. The extent of phosphate released is directly proportional to the PDE activity. In this screening method, the released phosphate by the enzymatic cleavage is quantified using BIOMOL GREEN reagent in a modified malachite green assay. The resulting green colour with λmax at 620 nm is directly proportional to the released phosphate and then PDE activity.
Sequence of PDE3 enzyme (Q14432 whole entry): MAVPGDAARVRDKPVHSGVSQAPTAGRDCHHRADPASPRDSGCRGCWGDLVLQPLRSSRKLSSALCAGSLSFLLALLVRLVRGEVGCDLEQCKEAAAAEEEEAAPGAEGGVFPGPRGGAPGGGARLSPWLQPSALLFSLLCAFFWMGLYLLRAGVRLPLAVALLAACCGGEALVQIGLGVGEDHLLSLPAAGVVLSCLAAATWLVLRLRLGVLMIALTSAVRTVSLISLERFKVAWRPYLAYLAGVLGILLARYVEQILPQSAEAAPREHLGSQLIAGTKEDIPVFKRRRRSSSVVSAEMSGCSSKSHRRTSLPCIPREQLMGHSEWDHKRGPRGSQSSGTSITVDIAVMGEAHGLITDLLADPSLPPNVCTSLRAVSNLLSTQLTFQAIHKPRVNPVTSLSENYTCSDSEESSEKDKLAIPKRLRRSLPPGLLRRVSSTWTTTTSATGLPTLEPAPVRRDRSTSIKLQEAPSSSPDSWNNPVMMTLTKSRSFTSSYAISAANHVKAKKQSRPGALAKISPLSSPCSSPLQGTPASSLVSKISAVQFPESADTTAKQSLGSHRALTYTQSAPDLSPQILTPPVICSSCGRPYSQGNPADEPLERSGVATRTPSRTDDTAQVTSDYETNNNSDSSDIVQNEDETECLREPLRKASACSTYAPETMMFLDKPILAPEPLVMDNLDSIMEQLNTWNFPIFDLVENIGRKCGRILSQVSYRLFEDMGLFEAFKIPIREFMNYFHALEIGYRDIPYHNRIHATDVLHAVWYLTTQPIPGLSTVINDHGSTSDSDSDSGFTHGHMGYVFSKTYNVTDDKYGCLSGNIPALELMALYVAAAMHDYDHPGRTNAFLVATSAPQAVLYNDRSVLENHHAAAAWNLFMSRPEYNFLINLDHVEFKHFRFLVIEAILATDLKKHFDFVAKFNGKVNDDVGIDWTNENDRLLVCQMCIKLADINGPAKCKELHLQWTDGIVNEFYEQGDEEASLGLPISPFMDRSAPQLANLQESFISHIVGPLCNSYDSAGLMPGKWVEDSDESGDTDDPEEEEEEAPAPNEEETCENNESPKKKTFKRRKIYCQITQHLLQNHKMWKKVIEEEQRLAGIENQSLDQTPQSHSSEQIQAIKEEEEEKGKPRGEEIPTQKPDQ
Turning to `Cn1c(=O)c2cc(Cc3ccccc3)c(=O)[nH]c2n(C)c1=O` [Compound 1a, 6-Benzyl-1,3-dimethyl-1,2,3,4,7,8-hexahydropyrido[2,3-d]pyrimidine-2,4,7-trione], it took 11800 nM to reach half-maximal inhibition (IC50).

Compound `Cn1c(=O)c2cc(Cc3ccccc3F)c(=O)[nH]c2n(C)c1=O` [Compound 1b, 6-(2-Fluorobenzyl)-1,3-dimethyl-1,2,3,4,7,8-hexahydropyrido[2,3-d]pyrimidine-2,4,7-trione] returned an IC50 of 48.8 nM.

Compound `Cn1c(=O)c2cc(Cc3cccc(F)c3)c(=O)[nH]c2n(C)c1=O` [Compound 1c, 6-(3-Fluorobenzyl)-1,3-dimethyl-1,2,3,4,7,8-hexahydropyrido[2,3-d]pyrimidine-2,4,7-trione] registered a half-inhibitory concentration (IC50) of 32.3 nM.

In the case of `Cn1c(=O)c2cc(Cc3ccc(Cl)cc3)c(=O)[nH]c2n(C)c1=O` [Compound 1g, 6-(4-Chlorobenzyl)-1,3-dimethyl-1,2,3,4,7,8-hexahydropyrido[2,3-d]pyrimidine-2,4,7-trione], the IC50 came out at 12.5 nM.

The compound `Cn1c(=O)c2cc(Cc3ccccc3Br)c(=O)[nH]c2n(C)c1=O` [Compound 1i, 6-(2-Bromobenzyl)-1,3-dimethyl-1,2,3,4,7,8-hexahydropyrido[2,3-d]pyrimidine-2,4,7-trione] displayed an IC50 of 6.6 nM.

Compound `Cn1c(=O)c2cc(Cc3ccc(Br)cc3)c(=O)[nH]c2n(C)c1=O` [Compound 1k, 6-(4-Bromobenzyl)-1,3-dimethyl-1,2,3,4,7,8-hexahydropyrido[2,3-d]pyrimidine-2,4,7-trione] displayed an IC50 of 4.8 nM.

Values taken from US9242982B2, “Pyridopyrimidine based derivatives as potential phosphodiesterase 3 (PDE3) inhibitors and a process for the preparation thereof” (COUNCIL OF SCIENTIFIC & INDUSTRIAL RESEARCH, priority 2013, dated 2016).
